Marks after values point to notes of the source that are not given here.
Tested on: myeloperoxidase (MPO)
Assay: Myeloperoxidase (MPO) expression/activity inhibition in LPS-stimulated skin PMNs (ELISA on cell supernatants)
Assay type: cell-based
Conditions: human skin PMNs stimulated with LPS, positive reference at 0.1%, 6 hours of incubation
Procedure: Tamarind Seed Polysaccharide (either alone and in combination with standardized botanical extracts) was tested for its ability to reduce inflammation cellular response through the measurement of the inhibition of myeloperoxidase (MPO) activity in polymorphonuclear neutrophils (PMNs). Inflammation, in particular during the acute phase, causes the migration of PMNs towards the inflammation site by chemotaxis. It is also known that the degree of MPO activity is directly proportional to the number of PMNs present in the tissue and to the inflammatory response. Thus, a reduction of the number of PMNs corresponds to a reduction in the activity of myeloperoxidase and it can he then concluded that the cellular response to inflammation is reduced accordingly.
Human skin PMNs were cultivated in bacteriological Petri dishes with 100 mm diameter. Cell culture medium was RPMI-1640 supplemented with Penicillin (100 U/ml), Streptomycin (100 mcg/ml), L-glutamin (2 mM) and 10% heat-inactivated and filtered FCS (Foetal Calf Serum). PMNs were then stimulated with the addition of LPS (lipopolysaccharides) to the cultivation media. […]
After 6 hours of incubation, the overall inhibition of myeloperoxidase (MPO) activity was quantified in the PMNs cell supernatants using an enzyme immunoassay kit (ELISA).

C[C@@H]1C[C@H]2[C@@H]3CCC4=CC(=O)C=C[C@]4(C)[C@@]3(F)[C@@H](O)C[C@]2(C)[C@@]1(O)C(=O)CO [Dexamethasone]
MPO Inhibition of Expression (Δ % vs. basal): −30%*

Reference: US10130652B2, “Anti-inflammatory compositions” (INDENA S.P.A., priority 2010, dated 2018)
